Several values for one entry are separate records, joined by “and”; a condition that tells them apart may be missing. Equal values may be shown once. Read-outs that look alike come from different tables or passages of the source.
Test system: panel of 140 standard cancer cell lines
Test: ProliFiler-140 cancer cell line screen (CellTiterGlo, 72 h)
Assay type: cell-based
Protocol: Incubations were performed for 72 h before automated viability readout with CellTiterGlo (Figure 8).
End of Figure S11 (part 5 of 5): ProliFiler-140 cancer cell line screening for cytotoxicity of the prodrugs.
8-data-point dose response curves from CellTiter-Glo® viability readout.
ProliFiler-140 cell line panel part V

For `COc1cc2cc(C(=O)N3C[C@@H](CCl)c4c3cc(OC(=O)N(CCC(=O)N3CCN(C)CC3)[C@H]3CCSSC3)c3ccccc43)[nH]c2c(OC)c1OC` [P-SS60-CBI-TMI], the “Reductive Activation Index” value (786-O (Kidney)) was 5.22, the IC50 (786-O (Kidney), read-out: IC50 [M] (ProliFiler-140)) was 2.26e-08 M and 2.3e-08 M and the “Reductive Activation Index” value (A172 (Brain)) was 4.87. For the same compound, the IC50 (A172 (Brain), read-out: IC50 [M] (ProliFiler-140)) was 1.18e-07 M and 1.2e-07 M, the “Reductive Activation Index” value (A375 (Skin)) was 5.08 and the IC50 (A375 (Skin), read-out: IC50 [M] (ProliFiler-140)) was 3.23e-08 M and 3.2e-08 M. The “Reductive Activation Index” value (A427 (Lung)) was 5.0 and 5.03, the IC50 (A427 (Lung), read-out: IC50 [M] (ProliFiler-140)) was 1.6e-07 M and 1.64e-07 M and the IC50 (A431 (Skin), read-out: IC50 [M] (ProliFiler-140)) was 4.05e-08 M and 4e-08 M. For the same compound, the “Reductive Activation Index” value (A498 (Kidney)) was 5.96, the IC50 (A498 (Kidney), read-out: IC50 [M] (ProliFiler-140)) was 5.04e-08 M and 5e-08 M and the IC50 (A498, read-out: IC50) was 5e-08 M. The “Reductive Activation Index” value (A549 (Lung)) was 6.4, the IC50 (A549 (Lung), read-out: IC50 [M] (ProliFiler-140)) was 1.2e-07 M and the IC50 (A549, read-out: IC50) was 1.2e-07 M. For the same compound, the IC50 (A2058 (Skin), read-out: IC50 [M] (ProliFiler-140)) was 1.5e-08 M, the IC50 (A2780 (Ovary), read-out: IC50 [M] (ProliFiler-140)) was 1.2e-08 M and the “Reductive Activation Index” value (AsPC-1 (Pancreas)) was 8.2. The IC50 (AsPC-1 (Pancreas), read-out: IC50 [M] (ProliFiler-140)) was 2.6e-07 M and 2.63e-07 M, the “Reductive Activation Index” value (BEN (Lung)) was 13 and the IC50 (BEN (Lung), read-out: IC50 [M] (ProliFiler-140)) was 1.1e-07 M and 1.12e-07 M. For the same compound, the “Reductive Activation Index” value (BT-20 (Breast)) was 4.6, the IC50 (BT-20 (Breast), read-out: IC50 [M] (ProliFiler-140)) was 2.4e-07 M and 2.42e-07 M and the “fold-change of IC50 relative to P-CC60” value (BxPC-3) was 6. The IC50 (BxPC-3 (Pancreas), read-out: IC50 [M] (ProliFiler-140)) was 1.08e-07 M and 1.1e-07 M, the IC50 (COLO 205, read-out: IC50) was 1.6e-07 M and the IC50 (COR-L279 (Lung), read-out: IC50 [M] (ProliFiler-140)) was 1.4e-08 M and 1.43e-08 M. For the same compound, the IC50 (COV434 (Ovary), read-out: IC50 [M] (ProliFiler-140)) was 2.2e-08 M and 2.24e-08 M, the “Reductive Activation Index” value (Caki-1 (Kidney)) was 5.23 and the IC50 (Caki-1 (Kidney), read-out: IC50 [M] (ProliFiler-140)) was 6.29e-08 M and 6.3e-08 M. The “Reductive Activation Index” value (Caki-2 (Kidney)) was 7.2, the IC50 (Caki-2 (Kidney), read-out: IC50 [M] (ProliFiler-140)) was 2.1e-07 M and the “Reductive Activation Index” value (Calu-6 (Lung)) was 6.64. For the same compound, the IC50 (Calu-6 (Lung), read-out: IC50 [M] (ProliFiler-140)) was 5.16e-08 M and 5.2e-08 M, the “Reductive Activation Index” value (Colo 205 (Colon)) was 4.9 and the IC50 (Colo 205 (Colon), read-out: IC50 [M] (ProliFiler-140)) was 1.6e-07 M and 1.57e-07 M. The “Reductive Activation Index” value (DLD-1 (Colon)) was 4.69 and 4.7, the IC50 (DLD-1 (Colon), read-out: IC50 [M] (ProliFiler-140)) was 1.69e-07 M and 1.7e-07 M and the IC50 (DU-145 (Prostate), read-out: IC50 [M] (ProliFiler-140)) was 3.6e-08 M and 3.58e-08 M. For the same compound, the IC50 (DV90 (Lung), read-out: IC50 [M] (ProliFiler-140)) was 1.3e-08 M and 1.32e-08 M, the IC50 (Detroit562 (Head/Neck), read-out: IC50 [M] (ProliFiler-140)) was 4.27e-08 M and 4.3e-08 M and the “Reductive Activation Index” value (EFM-19 (Breast)) was 4.2 and 4.18. For the same compound, the IC50 (EFM-19 (Breast), read-out: IC50 [M] (ProliFiler-140)) was 2.3e-07 M, the “Reductive Activation Index” value (EFM-192A (Breast)) was 5.9 and the IC50 (EFM-192A (Breast), read-out: IC50 [M] (ProliFiler-140)) was 3e-07 M and 3.01e-07 M. The “Reductive Activation Index” value (EFO-27 (Ovary)) was 5.7, the IC50 (EFO-27 (Ovary), read-out: IC50 [M] (ProliFiler-140)) was 1.6e-07 M and 1.58e-07 M and the IC50 (EPLC-272H (Lung), read-out: IC50 [M] (ProliFiler-140)) was 7.9e-08 M. For the same compound, the “Reductive Activation Index” value (H4 (Brain)) was 5.36, the IC50 (H4 (Brain), read-out: IC50 [M] (ProliFiler-140)) was 1.51e-08 M and 1.5e-08 M and the “Reductive Activation Index” value (H460 (Lung)) was 7.2. For the same compound, the IC50 (H460 (Lung), read-out: IC50 [M] (ProliFiler-140)) was 7.1e-09 M and 7.11e-09 M, the IC50 (H1299 (Lung), read-out: IC50 [M] (ProliFiler-140)) was 7.85e-08 M and 7.9e-08 M and the IC50 (H2228 (Lung), read-out: IC50 [M] (ProliFiler-140)) was 5.68e-08 M and 5.7e-08 M. The IC50 (HCC38 (Breast), read-out: IC50 [M] (ProliFiler-140)) was 1.9e-08 M, the “Reductive Activation Index” value (HCC202 (Breast)) was 7.1 and the IC50 (HCC202 (Breast), read-out: IC50 [M] (ProliFiler-140)) was 1.3e-07 M and 1.26e-07 M. The “Reductive Activation Index” value (HCC827 (Lung)) was 7.3, the IC50 (HCC827 (Lung), read-out: IC50 [M] (ProliFiler-140)) was 1.9e-07 M and the “Reductive Activation Index” value (HCC 1569 (Breast)) was 8.2. The IC50 (HCC 1569 (Breast), read-out: IC50 [M] (ProliFiler-140)) was 1.2e-07 M and 1.21e-07 M, the IC50 (HCT116 (Colon), read-out: IC50 [M] (ProliFiler-140)) was 6.94e-08 M and 6.9e-08 M and the “Reductive Activation Index” value (HCT-15 (Colon)) was 5.23. The IC50 (HCT-15 (Colon), read-out: IC50 [M] (ProliFiler-140)) was 1.04e-07 M and 1e-07 M, the IC50 (HCT-15, read-out: IC50) was 1e-07 M and the “Reductive Activation Index” value (HEC-1-A (Endometrium)) was 6.5. The IC50 (HEC-1-A (Endometrium), read-out: IC50 [M] (ProliFiler-140)) was 2.8e-07 M and 2.85e-07 M, the “Reductive Activation Index” value (HEC-1-B (Endometrium)) was 4.0 and the IC50 (HEC-1-B (Endometrium), read-out: IC50 [M] (ProliFiler-140)) was 8.3e-07 M and 8.33e-07 M. The IC50 (HL-60 (Blood), read-out: IC50 [M] (ProliFiler-140)) was 1.8e-08 M and 1.83e-08 M, the “Reductive Activation Index” value (HT-29 (Colon)) was 5.3 and the IC50 (HT-29 (Colon), read-out: IC50 [M] (ProliFiler-140)) was 1.9e-07 M and 1.88e-07 M. The IC50 (HT-29, read-out: IC50) was 1.9e-07 M, the IC50 (HT-1080 (Fibrosarcoma), read-out: IC50 [M] (ProliFiler-140)) was 5.01e-08 M and 5e-08 M and the “Reductive Activation Index” value (HeLa (Ovary)) was 13.55. The “Reductive Activation Index” value (Hep3B2.1-7 (Liver)) was 5.6, the IC50 (Hep3B2.1-7 (Liver), read-out: IC50 [M] (ProliFiler-140)) was 2.4e-07 M and 2.37e-07 M and the “Reductive Activation Index” value (Hs 746T (Stomach)) was 7.7. The IC50 (Hs 746T (Stomach), read-out: IC50 [M] (ProliFiler-140)) was 1.3e-07 M and 1.29e-07 M, the “Reductive Activation Index” value (HuH7 (Liver)) was 5.70 and the IC50 (HuH7 (Liver), read-out: IC50 [M] (ProliFiler-140)) was 1.14e-07 M and 1.1e-07 M. For the same compound, the “Reductive Activation Index” value (Hutu 80 (Duodenum)) was 5.42 and 5.4, the IC50 (Hutu 80 (Duodenum), read-out: IC50 [M] (ProliFiler-140)) was 9.92e-09 M and 9.9e-09 M and the IC50 (Ishikawa (Endometrium), read-out: IC50 [M] (ProliFiler-140)) was 7.1e-09 M and 7.07e-09 M. For the same compound, the IC50 (J82 (Bladder), read-out: IC50 [M] (ProliFiler-140)) was 9.88e-08 M and 9.9e-08 M, the “Reductive Activation Index” value (JIMT-1 (Breast)) was 8.4 and the IC50 (JIMT-1 (Breast), read-out: IC50 [M] (ProliFiler-140)) was 1.9e-07 M. For the same compound, the IC50 (JVM-3 (Blood), read-out: IC50 [M] (ProliFiler-140)) was 8.72e-09 M and 8.7e-09 M, the IC50 (Jurkat (Blood), read-out: IC50 [M] (ProliFiler-140)) was 1.64e-08 M and 1.6e-08 M and the “Reductive Activation Index” value (K562 (Blood)) was 5.3. The IC50 (K562 (Blood), read-out: IC50 [M] (ProliFiler-140)) was 2.1e-07 M and 2.07e-07 M, the “Reductive Activation Index” value (KARPAS 299 (Blood)) was 4.42 and the IC50 (KARPAS 299 (Blood), read-out: IC50 [M] (ProliFiler-140)) was 1.6e-07 M. The “Reductive Activation Index” value (KG-1 (Blood)) was 4.67, the IC50 (KG-1 (Blood), read-out: IC50 [M] (ProliFiler-140)) was 1.33e-07 M and 1.3e-07 M and the “Reductive Activation Index” value (KG-1 a (Blood)) was 5.26. For the same compound, the IC50 (KG-1 a (Blood), read-out: IC50 [M] (ProliFiler-140)) was 1.05e-07 M and 1e-07 M, the IC50 (KMS-12-BM (Blood), read-out: IC50 [M] (ProliFiler-140)) was 6.64e-08 M and 6.6e-08 M and the “Reductive Activation Index” value (Kato III (Stomach)) was 4.3. The IC50 (Kato III (Stomach), read-out: IC50 [M] (ProliFiler-140)) was 3.7e-07 M and 3.72e-07 M, the “Reductive Activation Index” value (LN229 (Brain)) was 5.21 and the IC50 (LN229 (Brain), read-out: IC50 [M] (ProliFiler-140)) was 1.39e-07 M and 1.4e-07 M. For the same compound, the IC50 (LOU-NH91 (Lung), read-out: IC50 [M] (ProliFiler-140)) was 7.5e-08 M and 7.46e-08 M, the IC50 (LOVO (Colon), read-out: IC50 [M] (ProliFiler-140)) was 3.37e-08 M and 3.4e-08 M and the IC50 (LP-1 (Blood), read-out: IC50 [M] (ProliFiler-140)) was 1.7e-07 M and 1.69e-07 M. The “Reductive Activation Index” value (LnCap (Prostate)) was 8.0, the IC50 (LnCap (Prostate), read-out: IC50 [M] (ProliFiler-140)) was 1.1e-07 M and 1.12e-07 M and the “Reductive Activation Index” value (M07e (Blood)) was 8.55. The IC50 (M07e (Blood), read-out: IC50 [M] (ProliFiler-140)) was 1.62e-08 M and 1.6e-08 M, the “Reductive Activation Index” value (MCAS (Ovary)) was 6.5 and 6.53 and the IC50 (MCAS (Ovary), read-out: IC50 [M] (ProliFiler-140)) was 1.3e-07 M and 1.25e-07 M. The IC50 (MCF-7 (Breast), read-out: IC50 [M] (ProliFiler-140)) was 4.5e-08 M and 4.48e-08 M, the IC50 (MCF-7, read-out: IC50) was 4.5e-08 M and the “Reductive Activation Index” value (MDA MB 231 (Breast)) was 4.24. For the same compound, the IC50 (MDA MB 231 (Breast), read-out: IC50 [M] (ProliFiler-140)) was 1.74e-07 M and 1.7e-07 M, the “Reductive Activation Index” value (MDA MB 435 (Skin)) was 6.1 and the IC50 (MDA MB 435 (Skin), read-out: IC50 [M] (ProliFiler-140)) was 1.8e-07 M and 1.76e-07 M. For the same compound, the IC50 (MDA-MB-468 (Breast), read-out: IC50 [M] (ProliFiler-140)) was 3.1e-08 M, the IC50 (MDA-MB-468, read-out: IC50) was 3.1e-08 M and the IC50 (MEC-1 (Blood), read-out: IC50 [M] (ProliFiler-140)) was 1.5e-08 M and 1.51e-08 M.
